Values after ≈ are worked out from the molar mass of the structure shown. Like-named read-outs stand apart in the source and are kept apart here. Blank lines part the entries; values can stand above or below the molecule they belong to.
Assays:
[1] = tested on: IFNα-induced TYK2/phosphoSTAT1 (Tyr701) in Kit225 T cells; test: Kit225 T cell assay for IFNα-induced TYK2/phosphoSTAT1 activity; assay type: cell-based, human; conditions: Homo sapiens, KIT225, read-out: IC50 IFNα-induced-STAT1 Phosphorylation
Description: (§1) The cells were treated with serially diluted compounds for 1 hour and stimulated with 80 ng/mL human recombinant IFNα (R&D Systems) for 15 minutes. The treated cells were then lysed and cellular phosphorylated-STAT1 (Tyr701) levels were measured by AlphaLISA (PerkinElmer, Cat#ALSU-PST1) according to the manufacturer’s instructions.

[2] = tested on: IL23-induced TYK2/phosphoSTAT3 (Tyr705) in Kit225 T cells; test: Kit225 T cell assay for IL23-induced TYK2/phosphoSTAT3 activity; assay type: cell-based, human; conditions: Homo sapiens, KIT225, read-out: IC50 IL23-induced-STAT3 Phosphorylation
Description: as §1, with “100” for “80”, “IL23” for “IFNα”, “20” for “15”, “phosphorylated-STAT3 (Tyr705)” for “phosphorylated-STAT1 (Tyr701)”, “Cat# ALSU-PST3)” for “Cat#ALSU-PST1)”

[3] = tested on: IFNα-induced CXCL10 production in human whole blood; test: IFNα-induced CXCL10 production in human whole blood; assay type: cell-based
Description: Human whole blood [drawn with Ethylenediaminetetraacetic acid (EDTA) as anti-coagulant] was obtained from Zen-Bio Inc. (Durham, NC). […] The plasma was collected for detection of C-X-C motif chemokine 10 (CXCL10, IP10) secretion. CXCL10 was measured by Human CXCL10/IP-10 AlphaLISA Kit (PerkinElmer, #AL259 C/F) according to the manufacturer’s instructions.

[4] = target: T1, TYK2 JH2 pseudokinase domain (Homo sapiens, UniProt P29597); test: KdELECT competition binding assay, TYK2 JH2; conditions: isolated TYK2 JH2 domain
T1 construct: purchased Eurofins DiscoverX Corporation (contract assay)
T1 sequence (P29597 589-875 limits assumed): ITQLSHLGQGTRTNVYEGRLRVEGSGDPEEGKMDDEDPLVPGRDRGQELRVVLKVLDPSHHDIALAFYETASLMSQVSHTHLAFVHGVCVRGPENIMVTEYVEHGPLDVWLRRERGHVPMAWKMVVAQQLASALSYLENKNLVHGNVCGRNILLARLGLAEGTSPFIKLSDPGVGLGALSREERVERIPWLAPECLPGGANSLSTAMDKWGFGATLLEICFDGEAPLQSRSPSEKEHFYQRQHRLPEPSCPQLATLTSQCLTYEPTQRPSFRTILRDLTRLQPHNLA
Description: (§2) The KdELECT competition assays were performed to test the binding affinity of compounds to the JH1 kinase region or JH2 pseudokinase region in TYK2 or JAK by ligand competition with JH1 or JH2 protein segments. The assay was carried out at Eurofins DiscoverX Corporation following the established standard protocol (DiscoverX, San Diego, CA). In this assay, compounds that bind to the kinase or pseudokinase protein regions prevent the protein binding to the immobilized ligand and reduce the amount of kinase matter captured on the solid surface. […] Dissociation constants (Kds) for test compound-kinase interactions are calculated by measuring the amount of kinase captured on the solid support as a function of the test compound concentration. […] The ligated beads were blocked with excess biotin and washed with blocking buffer to remove unbound ligand and to reduce nonspecific binding. […] All reactions were performed in polypropylene 384-well plates with a final volume of 20 μL. […] The beads were then re-suspended in the elution buffer and incubated at room temperature with shaking for 30 minutes. The kinase concentration in the eluant was measured by qPCR. Two replicates were performed and averaged to obtain the Kd measurement.

panel of 98 kinases = test: Kinome screening panel (DiscoverX scanEdge); assay type: binding; conditions: 1 µM; 91 non-mutant kinases
Description: For compound selectivity across a multi-kinase panel, compound binding affinity to each kinase or pseudokinase protein region was assessed using the DiscoverX scanEdge screening. Compounds were screened at a concentration of 1,000 nM in competition binding assays at Eurofins DiscoverX Corporation following the established standard protocol (DiscoverX, San Diego, CA), as described previously in the KdELECT competition binding assay. Competition with test compounds for binding to resin conjugated affinity ligand was employed to determine the “hits”, which are identified by measuring the amount of kinase captured in test versus control samples by using a quantitative PCR method that detects the associated DNA label. This measurement assesses compound selectivity against a panel of 98 kinases including kinases from the protein kinase A, G, and C family group (AGC), Ca^2+/calmodulin-dependent protein kinase class of enzymes (CAMK), group of cyclin-dependent kinase (CDK), mitogen-activated protein kinase (MAPK), glycogen synthase kinase (GSK) and CDC-like kinase (CLK) (CMGC), Casein kinase 1 (CK1), group of Ste 7, Ste 11 and Ste 20 kinases (STE), Tyrosine Kinases (TK), Tyrosine Kinase-Like group (TKL), lipid, and atypical kinase families, and other mutant forms.

CYP450 2C19 = CYP450 2C19 (Homo sapiens, UniProt P33261); test: CYP450 inhibition, 2C19; assay type: in vitro ADME
Sequence of CYP450 2C19 (P33261 whole entry, the tested form may be a part): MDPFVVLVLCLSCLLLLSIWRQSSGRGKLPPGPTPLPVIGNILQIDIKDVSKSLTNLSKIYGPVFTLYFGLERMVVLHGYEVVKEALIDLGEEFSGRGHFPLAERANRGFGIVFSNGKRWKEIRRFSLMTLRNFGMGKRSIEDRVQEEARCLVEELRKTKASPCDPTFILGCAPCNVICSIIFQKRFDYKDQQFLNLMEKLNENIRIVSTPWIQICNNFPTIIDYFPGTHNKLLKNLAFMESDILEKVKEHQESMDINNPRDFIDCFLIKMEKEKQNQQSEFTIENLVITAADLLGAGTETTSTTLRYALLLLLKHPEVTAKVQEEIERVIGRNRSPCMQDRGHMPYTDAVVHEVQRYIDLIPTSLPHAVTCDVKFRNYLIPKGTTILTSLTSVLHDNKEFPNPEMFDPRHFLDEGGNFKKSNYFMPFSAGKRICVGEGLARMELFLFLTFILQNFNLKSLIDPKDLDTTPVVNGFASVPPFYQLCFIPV

TYK2 JH1 kinase domain = target: T2, TYK2 JH1 kinase domain (Homo sapiens, UniProt P29597); test: KdELECT competition binding assay, TYK2 JH1; conditions: isolated TYK2 JH1 domain
T2 construct: purchased Eurofins DiscoverX Corporation (contract assay)
T2 sequence (P29597 897-1176 limits assumed): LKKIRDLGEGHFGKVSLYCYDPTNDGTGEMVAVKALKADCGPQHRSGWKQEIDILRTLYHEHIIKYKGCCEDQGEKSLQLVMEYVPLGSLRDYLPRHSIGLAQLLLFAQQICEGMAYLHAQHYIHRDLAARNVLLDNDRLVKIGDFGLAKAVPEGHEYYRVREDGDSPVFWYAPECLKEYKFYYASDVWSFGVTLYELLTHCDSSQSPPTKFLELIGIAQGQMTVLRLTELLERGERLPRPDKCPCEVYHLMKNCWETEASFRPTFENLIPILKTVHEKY
Description: as §2

CYP450 1A2 = target: T3, CYP450 1A2 (Homo sapiens, UniProt P05177); test: CYP450 inhibition, 1A2; assay type: in vitro ADME
T3 sequence (P05177 1-516): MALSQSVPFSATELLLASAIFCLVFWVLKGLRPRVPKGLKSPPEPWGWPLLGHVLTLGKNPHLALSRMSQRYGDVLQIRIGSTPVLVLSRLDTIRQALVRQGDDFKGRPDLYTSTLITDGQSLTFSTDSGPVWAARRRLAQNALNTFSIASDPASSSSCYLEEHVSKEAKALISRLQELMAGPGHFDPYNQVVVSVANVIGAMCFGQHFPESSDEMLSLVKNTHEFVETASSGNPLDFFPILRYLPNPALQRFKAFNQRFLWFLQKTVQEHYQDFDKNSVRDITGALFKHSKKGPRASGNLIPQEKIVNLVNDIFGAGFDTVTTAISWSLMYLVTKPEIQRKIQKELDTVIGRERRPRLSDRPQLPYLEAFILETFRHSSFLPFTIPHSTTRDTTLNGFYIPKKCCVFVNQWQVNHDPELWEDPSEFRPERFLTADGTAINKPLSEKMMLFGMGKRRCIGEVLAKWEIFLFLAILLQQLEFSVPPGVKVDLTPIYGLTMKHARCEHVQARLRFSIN

LM T1/2, D = assay type: in vitro ADME; conditions: dog, liver microsomes
GSH = assay type: in vitro ADME
LM T1/2, H = assay type: in vitro ADME; conditions: human, liver microsomes
CYP450 3A4 = CYP450 3A4 (Homo sapiens, UniProt P08684); test: CYP450 inhibition, 3A4; assay type: in vitro ADME; conditions: 3A4(m); read-out: CYP450 3A4(m)
Sequence of CYP450 3A4 (P08684 whole entry): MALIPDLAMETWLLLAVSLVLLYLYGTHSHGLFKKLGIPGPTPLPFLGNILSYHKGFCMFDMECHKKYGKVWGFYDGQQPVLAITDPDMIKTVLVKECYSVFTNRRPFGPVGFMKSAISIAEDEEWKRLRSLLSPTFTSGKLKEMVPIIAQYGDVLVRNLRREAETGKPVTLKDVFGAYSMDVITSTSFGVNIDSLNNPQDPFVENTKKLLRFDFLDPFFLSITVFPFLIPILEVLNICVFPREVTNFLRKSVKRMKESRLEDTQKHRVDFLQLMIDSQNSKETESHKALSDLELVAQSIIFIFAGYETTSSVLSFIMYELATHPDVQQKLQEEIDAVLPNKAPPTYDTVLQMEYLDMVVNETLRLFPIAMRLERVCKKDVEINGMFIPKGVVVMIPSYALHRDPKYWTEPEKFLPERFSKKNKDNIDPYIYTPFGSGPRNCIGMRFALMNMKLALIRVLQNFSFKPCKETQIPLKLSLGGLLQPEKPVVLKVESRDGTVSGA

CYP450 2D6 = CYP450 2D6 (Homo sapiens, UniProt P10635); test: CYP450 inhibition, 2D6; assay type: in vitro ADME
Sequence of CYP450 2D6 (P10635 whole entry): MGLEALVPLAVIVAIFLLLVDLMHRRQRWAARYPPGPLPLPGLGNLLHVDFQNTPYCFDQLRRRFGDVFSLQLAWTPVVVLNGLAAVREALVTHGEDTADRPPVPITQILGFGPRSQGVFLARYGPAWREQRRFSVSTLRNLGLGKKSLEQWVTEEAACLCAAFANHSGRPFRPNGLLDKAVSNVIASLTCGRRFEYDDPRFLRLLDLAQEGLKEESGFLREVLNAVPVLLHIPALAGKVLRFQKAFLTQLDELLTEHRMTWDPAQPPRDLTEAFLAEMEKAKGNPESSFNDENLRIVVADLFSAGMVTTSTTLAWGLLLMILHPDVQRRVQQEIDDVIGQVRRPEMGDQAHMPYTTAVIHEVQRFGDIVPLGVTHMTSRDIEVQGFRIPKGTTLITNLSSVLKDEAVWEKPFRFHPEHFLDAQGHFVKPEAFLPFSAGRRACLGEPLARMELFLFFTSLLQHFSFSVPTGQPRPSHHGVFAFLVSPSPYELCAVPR

Solubility (PBS/Fas/Fes) = assay type: physicochemical
LM T1/2, R = assay type: in vitro ADME; conditions: rat, liver microsomes
LM T1/2, M = assay type: in vitro ADME; conditions: mouse, liver microsomes
CYP450 2C9 = CYP450 2C9 (Homo sapiens, UniProt P11712); test: CYP450 inhibition, 2C9; assay type: in vitro ADME
Sequence of CYP450 2C9 (P11712 whole entry): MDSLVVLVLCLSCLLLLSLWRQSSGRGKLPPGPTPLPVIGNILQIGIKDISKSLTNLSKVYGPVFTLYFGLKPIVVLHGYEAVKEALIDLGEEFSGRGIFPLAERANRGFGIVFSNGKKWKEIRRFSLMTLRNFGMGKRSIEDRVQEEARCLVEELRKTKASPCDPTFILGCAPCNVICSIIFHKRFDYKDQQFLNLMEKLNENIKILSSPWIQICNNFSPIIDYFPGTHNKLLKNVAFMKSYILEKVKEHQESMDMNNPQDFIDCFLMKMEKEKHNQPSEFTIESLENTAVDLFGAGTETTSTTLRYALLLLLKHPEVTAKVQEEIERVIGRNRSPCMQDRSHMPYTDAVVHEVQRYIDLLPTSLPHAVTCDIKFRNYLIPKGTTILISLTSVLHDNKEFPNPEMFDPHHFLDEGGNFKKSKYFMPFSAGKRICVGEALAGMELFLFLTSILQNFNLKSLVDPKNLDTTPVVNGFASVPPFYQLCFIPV

LM T1/2, Mk = assay type: in vitro ADME; conditions: monkey, liver microsomes
[5] = Homo sapiens, read-out: IFNa-induced-CXCL10 Production in Human Whole Blood IC50, Average
[6] = Homo sapiens, read-out: IFNa-induced-CXCL10 Production in Human Whole Blood IC50, Donor 1
[7] = Homo sapiens, read-out: IFNa-induced-CXCL10 Production in Human Whole Blood IC50, Donor 2
[8] = Homo sapiens, read-out: IFNa-induced-CXCL10 Production in Human Whole Blood IC50, Donor 3

Structure (SMILES): [2H]C([2H])([2H])NC(=O)c1nnc(NC(=O)C2CC2)cc1Nc1cccc(-c2nc3c(s2)CN(S(C)(=N)=O)C3)c1OC (stereo not drawn) [SHR3110]
IC50 [1]: 16 nM
IC50 [2]: 24 nM
IC50 [3, 5]: 570 nM
IC50 [3, 6]: 480 nM
IC50 [3, 7]: 710 nM
IC50 [3, 8]: 520 nM

Kd [4]: 0.053 nM
Structure (SMILES): CNC(=O)c1cnc(Nc2ccc(N3CCC3)cn2)cc1Nc1ccccc1S(C)(=O)=O [SHR1274]
No. of Hits S (1) (panel of 98 kinases): 1
No. of Hits S (10) (panel of 98 kinases): 1
No. of Hits S (35) (panel of 98 kinases): 2

Structure (SMILES): CNC(=O)c1nnc(NC(=O)C2CC2)c2[nH]c(-c3ccccc3OC)cc12 [SHR2178]
Kd [4]: 0.34 nM
IC50 (CYP450 2C19): 30000 nM
Kd (TYK2 JH1 kinase domain): > 20000 nM
IC50 (CYP450 1A2): 4000 nM
half-life (LM T1/2, D): 40 min
GSH (GSH): negative
half-life (LM T1/2, H): 34 min
IC50 (CYP450 3A4): 30000 nM
IC50 (CYP450 2D6): 30000 nM
solubility (Solubility (PBS/Fas/Fes); FaSSIF, read-out: Solubility, Fas): 1.7 µM (≈ 0.621 µg/mL)
solubility (Solubility (PBS/Fas/Fes); FeSSIF (Fes [sic]), fessif, read-out: Solubility, Fes): 3.5 µM (≈ 1.28 µg/mL)
solubility (Solubility (PBS/Fas/Fes); PBS, aqueous buffer, read-out: Solubility, PBS): 0.1 µM (≈ 0.0365 µg/mL)
half-life (LM T1/2, R): 24 min
half-life (LM T1/2, M): 55 min
IC50 (CYP450 2C9): 30000 nM
half-life (LM T1/2, Mk): 99 min

IC50 ([3]; human whole blood, IFNα 16 hours; read-out: TYK2-associated IFNα-induced-CXCL10 Production in Human Whole Blood: IC50): 2000 ± 960 nM
Structure (SMILES): Cn1cc(-c2cn3nccc3c(-c3cnn([C@]4(CC#N)C[C@@H](C#N)C4)c3)n2)cn1 [Ropsacitinib]

Structure (SMILES): CC[C@@H]1CN(C(=O)NCC(F)(F)F)C[C@@H]1c1cnc2cnc3[nH]ccc3n12 [Upadacitinib]
IC50 [1]: 7 nM
IC50 [2]: 22 nM
IC50 [3, 5]: 120 nM
IC50 [3, 6]: 130 nM
IC50 [3, 7]: 110 nM
IC50 [3, 8]: 130 nM

IC50 [1]: 250 nM
IC50 [2]: 3800 nM
IC50 ([3]; Homo sapiens; average of Donor 1-3; read-out: IFNa-induced-CXCL10 Production in Human Whole Blood IC50, Average): 730 nM
IC50 ([3]; Homo sapiens; read-out: IFNa-induced-CXCL10 Production in Human Whole Blood IC50, Donor 1): 770 nM
IC50 ([3]; Homo sapiens; read-out: IFNa-induced-CXCL10 Production in Human Whole Blood IC50, Donor 2): 790 nM
IC50 ([3]; Homo sapiens; read-out: IFNa-induced-CXCL10 Production in Human Whole Blood IC50, Donor 3): 630 nM
Structure (SMILES): O=C(Nc1nc2cccc(-c3ccc(CN4CCS(=O)(=O)CC4)cc3)n2n1)C1CC1 [Filgotinib]

IC50 [1]: 12 nM
IC50 [2]: 3 nM
IC50 [3, 5]: 1900 nM
IC50 [3, 6]: 2100 nM
IC50 [3, 7]: 2800 nM
IC50 [3, 8]: 740 nM
Structure (SMILES): N#CC[C@H](C1CCCC1)n1cc(-c2ncnc3[nH]ccc23)cn1 [Ruxolitinib]
